Experimental findings from patent publication US20050282788A1, “Pharmaceutical compositions comprising silicones and two solubilized active principles” (GALDERMA S.A., priority 2004, published 2005) are described below.

Data set [1] can be described thus: Stability of calcitriol in ethanol (HPLC assay against a reference). It counts as physicochemical. The settings on record: 30 ppm calcitriol in absolute ethanol, 0.02% BHT. How it is done: The stability of calcitriol was tested in various solvents, including ethanol 100 and a 75%/25% ethanol 100/cyclomethicone mixture. a) Stability of Calcitriol in Ethanol: A 30 ppm solution of calcitriol in absolute ethanol to 100% is prepared in the presence of 0.02% of butylated hydroxytoluene (BHT). At the starting time (T0) the calcitriol concentration is taken to be 100%.

Data set [2] is described as follows: Stability of calcitriol in the (ethanol/cyclopentasiloxane) mixture (HPLC assay against a reference). Type of data set: physicochemical. Conditions: 30 ppm calcitriol, 0.02% BHT. How it is done: The stability of calcitriol was tested in various solvents, including ethanol 100 and a 75%/25% ethanol 100/cyclomethicone mixture. b) Stability of Calcitriol in the (Ethanol/Cyclopentasiloxane) Mixture A 30 ppm solution of calcitriol in absolute ethanol to 100% is prepared in the presence of 0.02% of BHT. At the starting time (TO) the calcitriol concentration is taken to be 100%.

Consider `C=C1/C(=C\C=C2/CCC[C@]3(C)[C@@H]([C@H](C)CCCC(C)(C)O)CC[C@@H]23)C[C@@H](O)C[C@@H]1O` [calcitriol], for which the “calcitriol concentration (T0 taken to be 100%)” value in data set [1] (+4° C., T1 week) was 97.7%; in data set [1] (+4° C., T2 weeks) it was 98.6%; in data set [1] (+4° C., T3 weeks), 98.1%; in data set [1] (+4° C., T4 weeks) it was 97.7%; in data set [1] (+30° C., T2 weeks) it was 93.4%; in data set [1] (+30° C., T4 weeks), 93.0%. For the same compound, the “calcitriol concentration (T0 taken to be 100%)” value in data set [1] (−18° C., T1 week) was 100.9%; in data set [1] (−18° C., T2 weeks) it was 100.5%; in data set [1] (−18° C., T3 weeks), 99.5%; in data set [1] (−18° C., T4 weeks), 99.5%; in data set [2] (+4° C., T2 weeks), 99.2%; in data set [2] (+4° C., T3 weeks), 99.6%. In addition, the “calcitriol concentration (T0 taken to be 100%)” value in data set [2] (+4° C., T4 weeks) is on record as 97.5%; in data set [2] (+30° C., T2 weeks), 93.8%; in data set [2] (+30° C., T4 weeks), 93.3%; in data set [2] (−18° C., T2 weeks) it was 100.4%; in data set [2] (−18° C., T3 weeks) it was 101.3%; in data set [2] (−18° C., T4 weeks), 99.2%.
